Experimental data taken from patent publication US20140155330A1, “Compositions And Methods For Modulating Apoptosis” (Yeda Research and Development Co. Ltd., priority 2011, published 2014).

Tests used:
Atg12-Bcl-2 interaction [1] = assay: Co-immunoprecipitation of Flag-tagged Atg12 and endogenous Bcl-2 in STS-treated HeLa cells; assay type: cell-based, human; settings: STS 3 μM, 4 h (FIG. 5E)
Description: (A) Sequence alignment of the BH3-like region of Atg12 with BH3 domains of the Bcl-2 family using ClustalW. The four conserved BH3 hydrophobic residues are colored in grey, and the conserved “GD” residues in black. Arrow indicates critical Asp64 residue in hAtg12. Species abbreviations: Hs, Homo sapiens; Sc, Saccharomyces cerevisiae; Dm, Drosophila melanogaster. (B) Co-immunoprecipitation of Flag-tagged hAtg12 and Bcl-2 or Mcl-1 from HEK293 cells co-transfected as indicated. (C) Co-immunoprecipitation of Flag-tagged hAtg12 with endogenous Bcl-2 and Mcl-1 from HEK293 cells. (D) Co-immunoprecipitation of endogenous Atg12 and endogenous Mcl-1 in HEK293 and HeLa cells. (E) Co-immunoprecipitation of Flag-tagged Atg12 and endogenous Bcl-2 in HeLa cells treated with STS (3 μM; 4 h). (F) Co-immunoprecipitation of Flag-tagged Atg12 and endogenous Bcl-2 in HEK293 cells co-expressing a control plasmid (CAT) or HA-tagged BAD. (G) Flag-Atg12 was immunoprecipitated from HEK293 cells and incubated with either 10 μM ABT-737 or DMSO (vehicle control). Co-precipitating Bcl-2 was assessed by western blot after elution with excess Flag peptide. (H) Co-immunoprecipitation of wild-type Atg12 or Atg12/D64 mutants with Bcl-2 in HEK293 cells co-transfected as indicated. In B, C, F-H, DAP1-Flag was used instead of Flag-Atg12 as a negative control for co-immunoprecipitation. […]

Bax = assay: Immunoprecipitation of conformationally active Bax (6A7 antibody) from HeLa cells; assay type: cell-based, human; settings: HeLa cells treated with STS; conformation-specific antibody 6A7 (FIG. 11C)
Procedure: Conformationally active Bax was immunoprecipitated with anti-Bax antibody (6A7, Abcam). Cell pellets from STS-treated HeLa cells (3 μM, 4 h; Sigma Aldrich) were resuspended in 1% CHAPS (3-[(3-cholamidopropyl)-dimethylammonio]-1-propanesulfonate) buffer supplemented with protease and phosphatase inhibitors. Pre-cleared cell lysates were incubated with 2 μg antibody overnight at 4° C., followed by incubation with protein G agarose beads. Beads were washed with lysis buffer and boiled in sample buffer. Western blot detection of total Bax was performed with anti-Bax N20 antibody (Santa Cruz Biotechnology).
Next, it was assessed whether the depletion of Atg12 affected early events in the apoptotic cascade that are regulated by anti-apoptotic Bcl-2 proteins. […] Importantly, Bax activation was restored upon enforced expression of an siRNA-resistant construct of Atg12 (FIG. 11D).

Atg12-Bcl-2 interaction [2] = molecular target: Atg12-Bcl-2 interaction (Homo sapiens, UniProt P10415); assay: Co-immunoprecipitation of Flag-Atg12 with endogenous Bcl-2, competition by Bcl-2 inhibitor; assay type: binding; settings: Atg12 immunoprecipitates from HEK293 cells incubated with 10 μM ABT-737 vs DMSO; western blot (FIG. 5G)
Chain of Atg12-Bcl-2 interaction (Homo sapiens, UniProt P10415) (P10415 whole entry, the tested form may be a part): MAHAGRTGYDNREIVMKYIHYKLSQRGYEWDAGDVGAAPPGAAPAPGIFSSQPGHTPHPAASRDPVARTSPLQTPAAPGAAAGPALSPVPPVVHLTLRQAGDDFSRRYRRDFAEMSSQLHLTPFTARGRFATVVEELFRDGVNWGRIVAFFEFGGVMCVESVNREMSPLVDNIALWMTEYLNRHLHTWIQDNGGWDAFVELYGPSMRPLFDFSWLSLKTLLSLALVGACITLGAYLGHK
Description: (A) Sequence alignment of the BH3-like region of Atg12 with BH3 domains of the Bcl-2 family using ClustalW. […] Species abbreviations: Hs, Homo sapiens; Sc, Saccharomyces cerevisiae; Dm, Drosophila melanogaster. (B) Co-immunoprecipitation of Flag-tagged hAtg12 and Bcl-2 or Mcl-1 from HEK293 cells co-transfected as indicated. (C) Co-immunoprecipitation of Flag-tagged hAtg12 with endogenous Bcl-2 and Mcl-1 from HEK293 cells. (D) Co-immunoprecipitation of endogenous Atg12 and endogenous Mcl-1 in HEK293 and HeLa cells. (E) Co-immunoprecipitation of Flag-tagged Atg12 and endogenous Bcl-2 in HeLa cells treated with STS (3 μM; 4 h). (F) Co-immunoprecipitation of Flag-tagged Atg12 and endogenous Bcl-2 in HEK293 cells co-expressing a control plasmid (CAT) or HA-tagged BAD. (G) Flag-Atg12 was immunoprecipitated from HEK293 cells and incubated with either 10 μM ABT-737 or DMSO (vehicle control). Co-precipitating Bcl-2 was assessed by western blot after elution with excess Flag peptide. (H) Co-immunoprecipitation of wild-type Atg12 or Atg12/D64 mutants with Bcl-2 in HEK293 cells co-transfected as indicated.

Atg12-Mcl-1 interaction = Atg12-Mcl-1 interaction (Homo sapiens, UniProt Q07820); assay: Co-immunoprecipitation of Flag-Atg12 with Mcl-1, competition by Bcl-2 inhibitor; assay type: binding; settings: Atg12 immunoprecipitates from HEK293 cells incubated with 10 μM ABT-737 (FIG. 5G)
Chain of Atg12-Mcl-1 interaction (Q07820 whole entry): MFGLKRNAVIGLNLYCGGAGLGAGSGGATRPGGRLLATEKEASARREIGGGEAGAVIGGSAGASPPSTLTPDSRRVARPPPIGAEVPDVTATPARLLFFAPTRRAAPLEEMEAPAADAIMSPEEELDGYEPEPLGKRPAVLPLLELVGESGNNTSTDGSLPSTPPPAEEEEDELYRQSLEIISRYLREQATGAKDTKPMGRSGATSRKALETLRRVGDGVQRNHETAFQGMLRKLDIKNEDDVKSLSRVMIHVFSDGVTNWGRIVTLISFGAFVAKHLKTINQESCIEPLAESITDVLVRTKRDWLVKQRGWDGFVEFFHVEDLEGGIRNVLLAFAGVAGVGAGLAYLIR

[3] = system: Flag-tagged human Atg12 (wild type)
Flag-tagged Bcl-2 = molecular target: T1, Flag-tagged Bcl-2 (UniProt P10415 1-239); assay: immunoprecipitation of Flag-tagged Bcl-2, western blot for endogenous Atg12
T1 construct: Expressed in HEK293 cells and immunoprecipitated on anti-FLAG beads; also called Flag-Bcl-2; not shown: Flag tag
T1 sequence (P10415 whole entry): as the sequence (P10415 whole entry, the tested form may be a part) above
Procedure: (§1) For co-immunoprecipitation, HEK293 cells were transiently transfected with the indicated plasmids. Cell pellets were lysed in B buffer (0.4% NP-40, 0.5 mM EDTA, 100 mM KCl, 20 mM Hepes pH 7.6, 20% glycerol) supplemented with protease and phosphatase inhibitors. […] In Example 7, an irrelevant tagged protein (DAP1-Flag) was used as control.
The conjugation of Atg12 to Atg5 is an essential step in the process of autophagy. In order to establish whether Bcl-2 binds to free Atg12, or to the Atg5-Atg12 conjugate, the nature of endogenous Atg12 that is co-immunoprecipitated with Bcl-2 was examined more closely. Upon immunoprecipitation of Flag-tagged Bcl-2 from HEK293 cells, a single band corresponding to the size of unconjugated Atg12 was observed, with no traces at the expected conjugate size (FIG. 7A, left). Furthermore, neither of Atg12's reported conjugation partners, Atg5 or Atg3, could be detected on this blot. […] The interaction between Bcl-2 and free Atg12 is significant, considering that unconjugated Atg12 represents only a small fraction of cellular Atg12, whereas the majority of the protein is conjugated to Atg5, even under basal conditions when autophagy is not induced (FIG. 7A, right).

Bcl-2 G145A = molecular target: T2, Bcl-2 G145A (UniProt P10415 1-239); assay: co-immunoprecipitation, transiently transfected HEK293 cells
T2 construct: Co-transfected with Flag-Atg12 in HEK293 cells; also called point mutation in the BH1 domain of Bcl-2
T2 sequence (P10415 whole entry G145A, the tested form may be a part): as the sequence (P10415 whole entry, the tested form may be a part) above, with G145A counted along it
Procedure: as §1
Therefore experiments were performed to test whether Atg12 was able to interact with members of each subgroup, specifically Bcl-2 and Mcl-1. In transiently transfected HEK293 cells, wild-type Bcl-2 co-immunoprecipitated with Flag-Atg12 (FIG. 5B). […] The specificity of the interaction was further confirmed by reciprocal co-immunoprecipitation, in which Flag-Bcl-2 pulled down ectopically expressed Atg12 (FIG. 6B). In addition, Mcl-1 also co-immunoprecipitated with Flag-Atg12 upon co-expression (FIG. 5B), and Flag-Atg12 interacted with endogenous Bcl-2 and Mcl-1 (FIG. 5C). Thus, Atg12 is able to bind promiscuously to both subgroups of Bcl-2-related proteins.

## CN[C@@H]1C[C@H]2O[C@@](C)([C@@H]1OC)n1c3ccccc3c3c4c(c5c6ccccc6n2c5c31)C(=O)NC4 [STS, staurosporine]
Atg12-Bcl-2 interaction [1]
  binding of Flag-Atg12 to endogenous Bcl-2: increased
Bax
  Bax activation: activation of Bax

## CN(C)CC[C@H](CSc1ccccc1)Nc1ccc(S(=O)(=O)NC(=O)c2ccc(N3CCN(Cc4ccccc4-c4ccc(Cl)cc4)CC3)cc2)cc1[N+](=O)[O-] [ABT-737]
Atg12-Bcl-2 interaction [2]
  interaction between Flag-Atg12 and endogenous Bcl-2: disrupted
Atg12-Mcl-1 interaction
  binding of Atg12 to Mcl-1: not affected

## recombinant p38 purified from bacteria
[3]
  in-vitro kinase assay (33P-ATP); phospho-mapping by mass spectrometry: p38 phosphorylates Atg12 in an in-vitro kinase assay; the site of phosphorylation was Thr65 in Atg12

B1: Atg12 (human; untagged, endogenous, or tag not stated) (other)
chain: MAEEPQSVLQLPTSIAAGGEGLTDVSPETTTPEPPSSAAVSPGTEEPAGDTKKKIDILLKAVGDTPIMKTKKWAVERTRTIQGLIDFIKKFLKLVASEQLFIYVNQSFAPSPDQEVGTLYECFGSDGKLVLHYCKSQAWG
notes: also called hAtg12; endogenous Atg12
Flag-tagged Bcl-2
  binding result: binds

B2: Flag-tagged human Atg12 (wild type) (other)
chain: B1 chain
notes: Expressed from pcDNA3 in HEK293 or HeLa cells and pulled down on anti-FLAG M2 beads; Also used here for the recombinant Atg12 made in E. coli and purified on FLAG-agarose (kinase assay); also called Flag-Atg12; Flag-tagged hAtg12; not shown: Flag tag
Bcl-2 G145A
  binding result: no binding
